Data set [1] is described as follows: Change in mouse weight, baseline to 3 weeks post-injury. It counts as in vivo. As to conditions: medium dose 300 μg/ml group. How it is done: (§1) Change in mouse weight was compared from baseline to 3 weeks post-injury, and weight in the pergolide groups was compared to the non-pergolide groups (N=10; 5 male, 5 female). Following euthanasia, the heart and eyes were removed from the high dose pergolide and vehicle groups and histopathology was assessed using previously described protocols.

Data set [2] has as its system C57BL/6J mice with alkali corneal injury. The data set can be described thus: Central corneal nerve density (β-tubulin III stained flat-mounts). It counts as in vivo, mouse. As to conditions: 3 weeks post injury; low dose 50 μg/ml; normal control 0.43±0.05. How it is done:
(§2) Mice were separated into 7 treatment groups with 10 mice per group (5 male, 5 female); high dose pergolide (600 μg/ml), medium dose pergolide (300 μg/ml), low dose pergolide (50 μg/ml), vehicle (solution only), NGF (100 μg/ml), naïve (injury and no treatment), and normal (no injury and no treatment). Preparation of pergolide and vehicle groups were done with Marinosolv® (Marinomed, Hovengasse, Korneuburg, AT) as described in (Siegl 2019 and Zhang 2020). Recombinant mouse NGF (R&D Systems, Minneapolis, MN, US) was prepared by dissolution in 1× phosphate-buffered saline (PBS). Both solutions were stored at 4 C according to the manufacturer's guidelines.
Mice were confirmed to have normal corneas prior to starting the study. Alkali corneal injury was done on one eye of each mouse for all groups excluding the normal group, in accordance with an established mouse model (Cho J 2019). […] Mice were placed on a water heating pad, monitored until fully awake, then returned to their cage. […]
(§3) Flat-mounts of mouse corneas were prepared and corneal nerve density was analyzed as previously described (N=6; 3 male, 3 female) (Zhang 2020) (FIG. 3A). […]
(§4) EVOS fluorescence microscope (Life Technologies, Carlsbad, CA, US) was used to create reconstructed whole-mount images and take images at the basal epithelial level in the central area of the injury. […]

The test system is the same in data set [3]. The data set can be described thus: Wiping test (ocular pain behavior) after corneal alkali injury. It counts as in vivo, mouse. As to conditions: females; for wiping (eye wipes, week minus baseline): week 2 post-injury, heightened vs week 1. The method, then:
Seventy (35 male, 35 female) C57BL/6J mice (The Jackson Laboratory, Maine, US) were utilized (FIG. 1A). Mice were kept in a 12 hour light/12 hour dark cycle in groups of 5 with food and water ad libitum. Differences between males and females were assessed.
as §2
(§5) Mice were confirmed to have normal corneas prior to starting the study. Alkali corneal injury was done on one eye of each mouse for all groups excluding the normal group, in accordance with an established mouse model (Cho J 2019). Alkali-based injury was chosen as it is one of the most common chemical injuries to the eye (Dua 2020). […] A 2 mm diameter filter paper disc was soaked in sodium hydroxide (0.75 M) then applied centrally on the cornea for 10 seconds. The disc was then removed and the ocular surface immediately irrigated with 10 ml of balanced sodium salts. The corneal surface was then lightly rubbed with the smooth side of forceps and irrigated in the same manner. None of the mice had eyelid or conjunctiva involvement of the injury. Erythromycin ointment (Perrigo, Dublin, IE) was then applied to the exterior of both eyes. Mice were placed on a water heating pad, monitored until fully awake, then returned to their cage.
All groups except the no treatment groups received their respective eye drops (10 μl per eye drop) three times daily (5 out of 7 days each week) in the injured eye for 3 weeks following injury. Mice were held for 10 seconds with the eye drop on their eye before being returned to their cage. Mice were sacrificed by cervical dislocation after week 3.
Wiping test was chosen to assess ocular pain behavior and was done once weekly (at the same time), in accordance with previously established protocols (N=10; 5 male, 5 female) (Tashiro et al. 2010, Cho J et al. 2019). Testing was performed in a clear open-top cylinder surrounded by 2 mirrors and a video recorder in front of the cylinder. Mice were habituated to the cylinder prior to the start of the study. The test consisted of applying 10 μl of sodium chloride (2 M) to the surface of the study cornea for 10 seconds, blotting excess away, then recording the mouse in the cylinder for 30 seconds. […] A different pipette tip was used for each mouse. Sudden movements and loud noises were avoided during testing so as to not distract the subjects. An eye wipe was defined as a purposeful wipe by the ipsilateral forelimb across the eye or resulting in eye closure. Cage changes were not done within 3 days of each test, and when cage changes occurred it happened for each group simultaneously. Eye wiping was assessed at baseline (3 days prior to injury) and on post-injury weeks 1, 2, and 3.

For data set [4] the test system is unchanged. The data set can be described thus: Corneal haze grading (Roper-Hall classification) after corneal alkali injury. It counts as in vivo, mouse. As to conditions: 3 weeks post injury; medium dose 300 μg/ml; grade 0-4; naïve group 3.3±0.8. How it is done: as §2
as §5, with “The corneal surface was then lightly rubbed with the smooth side of forceps and irrigated in the same manner. None of the mice had eyelid or conjunctiva involvement of the injury. Erythromycin ointment (Perrigo, Dublin, IE) was then applied to the exterior of both eyes.” left out, “cage. […]” for “cage.”

Data set [5] shares this test system. In words: Limbal nerve density (β-tubulin III stained flat-mounts). It counts as in vivo, mouse. To be noted: 3 weeks post injury, normal control 0.37±0.09. The method, then:
as §2
as §5, with “cage. […]” for “cage.”
as §3, §4

For data set [6], the system named is C57BL/6J mice. In words: Histopathology of heart, retina, liver and kidney after topical treatment. To be noted: high, medium, and low dose topical eye drops for 3 weeks. It counts as in vivo, mouse. How it is done: as §1
In brief, after excision, hearts, livers, and kidneys were fixed in formalin for 24 hours then embedded in paraffin and cut in the coronal and transverse planes (N=4; 2 male, 2 female) (Droogmans 2007 & 2009). Eyes were fixed in Davidson's solution for 24 hours then placed in 70% ethanol and processed prior then embedded in paraffin and cut in the sagittal plane (N=4; 2 male, 2 female) (Chidlow 2011). Hematoxylin and eosin were used to stain the slides (Cardiff 2014), then the EVOS fluorescence microscope was used to capture images.

[7] abbreviates: medium dose 300 μg/ml eye drops.

Turning to `CCCN1C[C@H](CSC)C[C@@H]2c3cccc4[nH]cc(c34)C[C@H]21` [pergolide], in data set [1], the “minor weight loss of one mouse, of initial body weight” value is recorded as “about 1%”. The “central corneal nerve density (proportion of area with β-tubulin III staining)” value in data set [2] stood at 0.10±0.03. Besides, the “wiping (eye wipes, week minus baseline)” value was found to be 7.0±5.8 wipes in data set [3] (high dose 600 μg/ml eye drops) and 6.2±5.5 wipes in data set [3] (setting [7]). Besides, the “wiping at week 3 compared to week 2” value in data set [3] (high dose 600 μg/ml eye drops) and in data set [3] (setting [7]) was “decreased” throughout. In data set [4], this molecule had a corneal haze grade of 2.2±1.1. The limbal nerve density in data set [5] (high dose 600 μg/ml) is listed as 0.35±0.11; in data set [5] (medium dose 300 μg/ml), 0.34±0.08. For the same molecule, the “retina, liver and kidney morphology” value in data set [6] was “did not show abnormal morphology”. Besides, the heart histopathology result in data set [6] (compared to the vehicle group) is reported as “did not show presence of valvular fibrosis, glycosaminoglycans deposits/myxoid changes, chondroid metaplasia, or other abnormal pathology”.

B1: NGF: Recombinant mouse NGF (R&D Systems) dissolved in 1× PBS, 100 μg/ml eye drops; positive control (protein, UniProt P01139 122-241, looked up)
Beta-nerve growth factor: SSTHPVFHMGEFSVCDSVSVWVGDKTTATDIKGKEVTVLAEVNINNSVFRQYFFETKCRASNPVESGCRGIDSKHWNSYCTTTHTFVKALTTDEKQAAWRFIRIDTACVCVLSRKATRRG
B1: in data set [3] (100 μg/ml eye drops), the “wiping (eye wipes, week minus baseline)” value is 4.6±5.1 wipes and the “wiping at week 3 compared to week 2” value is listed as “decreased”. In addition, in data set [5] (100 μg/ml), the limbal nerve density stood at 0.36±0.08.

The values above are taken from US20240325378A1, “PERGOLIDE TREATMENT OF OCULAR CHEMICAL INJURY” (University of Oregon, priority 2023, published 2024).
